Source: patent US20260335347A1, “COMBINATION THERAPY WITH SPARSENTAN AND A SGLT2 INHIBITOR FOR TREATING KIDNEY DISEASES OR DISORDERS” (Travere Therapeutics, Inc., priority 2022, published 2026)
Like-named read-outs stand apart in the source and are kept apart here. Blank lines part the entries; values can stand above or below the molecule they belong to.

Tests used:
patients with IgAN [1] = test: PROTECT Phase 3 trial: change in proteinuria (UP/C) and eGFR, sparsentan vs irbesartan; type: in vivo, human; details: for mean reduction in proteinuria (UP/C) from baseline: after 36 weeks of treatment, first 280 patients, sparsentan 200 mg titrated to 400 mg once daily or irbesartan 150 mg titrated to 300 mg once daily, oral, p<0.0001
Description: (§1) The long-term nephroprotective potential of treatment with sparsentan was evaluated in PROTECT, a 114-week, randomized, global, multicenter, double-blind, parallel-group, active-control Phase 3 clinical study in patients with IgAN who have persistent overt proteinuria and remain at high risk of disease progression despite being on a stable dose (or doses) of an angiotensin-converting enzyme inhibitor (ACEI) and/or angiotensin receptor blocker (ARB) that is (are) a maximum tolerated dose that is at least one half of the maximum labeled dose (MLD) (according to approved labeling). The purpose of the study is to evaluate the potential benefit of sparsentan on kidney function by analyzing change in proteinuria (protein in urine) and estimated glomerular filtration rate (eGFR) as compared to current standard treatment.
404 patients aged≥18 years were enrolled in the study globally.
Enrolled patients were at high risk of progressing to renal failure. The trial enrolled patients with eGFR≥30 mL/min/1.73 m^2 and urinary protein to creatinine ratio (UP/C)≥1.0 g/g at screening.
Inclusion criteria included: age 18 years or older at screening; biopsy-proven primary IgAN; proteinuria (UP/C) of ≥1 g/day at screening; eGFR≥30 mL/min/1.73 m^2 at screening; currently on stable dose of ACEI and/or ARB therapy, for at least 12 weeks prior to screening (maximum tolerated dose and at least one-half of the maximum labeled dose); systolic BP≤150 mmHg and diastolic BP≤100 mmHg at screening; willing to undergo change in ACEI and/or ARB and anti-hypertensive medications; and agree to contraception.
(§2) All patients were randomized at a 1:1 ratio to receive sparsentan or the active control, irbesartan (an angiotensin receptor blocker), as a single oral morning dose. Sparsentan was administered at a dose of 200 mg once daily by mouth for 2 weeks and then titrated to 400 mg once daily as tolerated. Irbesartan was administered at a dose of 150 mg once daily by mouth for 2 weeks and then titrated to 300 mg once daily as tolerated.
Change in proteinuria (UP/C) from baseline (Day 1) at Week 36 in sparsentan-treated patients as compared to irbesartan-treated patients was assessed. The Week 36 UP/C was based on a 24-hour urine sample. Secondary outcome measures included eGFR over a 52-week period and a 104-week period following the initial acute effect of randomized therapy. […] Also assessed was eGFR over a 58-week and a 110-week (approximately 2-year) period following the initiation of randomized therapy (the analysis is from Day 1 to 58 weeks postrandomization or from Day 1 to 110 weeks postrandomization, eGFR total slope at 2 years). […]

patients with FSGS [2] = test: DUPLEX trial: proportion of patients achieving UP/C ≤1.5 g/g and >40% reduction in UP/C (FPRE); type: in vivo, human; details: p=0.0094; for patients achieving FPRE (UP/C ≤1.5 g/g and >40 percent reduction in UP/C from Baseline): after 36 weeks of treatment, first approximately 190 patients
Description: (§3) The efficacy and safety of sparsentan were evaluated in DUPLEX, a randomized, double-blind, active-controlled, multicenter, global trial in patients with FSGS after exclusion of known secondary causes.
The trial enrolled patients with eGFR≥30 mL/min/1.73 m^2 and urinary protein to creatinine ratio (UP/C)>1.5 g/g. Randomization was stratified based on eGFR (≥30 to <60 mL/min/1.73 m^2 versus eGFR≥60 mL/min/1.73 m^2) and UP/C values (≤3.5 g/g versus >3.5 g/g for patients≥18 years of age, or ≤2 g/g versus >2 g/g for patients<18 years of age).
(§4) All patients were randomized at a 1:1 ratio to receive sparsentan or the active control, irbesartan. Sparsentan was administered at a dose of 400 mg once daily by mouth for 2 weeks and then titrated to 800 mg once daily as tolerated. Irbesartan was administered at a dose of 150 mg once daily by mouth for 2 weeks and then titrated to 300 mg once daily as tolerated. In patients weighing 50 kg or less, dosing was halved in both treatment arms (e.g., sparsentan administered at a dose of 200 mg once daily by mouth for 2 weeks and then titrated to 400 mg once daily as tolerated).
The proportion of patients achieving a UP/C≤1.5 g/g and a >40% reduction from baseline in UP/C was evaluated after patients completed 36 weeks of treatment.
In the DUPLEX Study, a total of 371 patients were randomized 1:1 to receive either sparsentan or irbesartan, the active control. The study protocol provided for an unblinded analysis to evaluate the interim efficacy endpoint—the proportion of patients achieving FPRE, which is a clinically meaningful endpoint defined as urine protein-to-creatinine ratio (UP/C)≤1.5 g/g and a >40 percent reduction in UP/C from Baseline, at Week 36—following the first approximately 190 patients reaching 36 weeks of treatment. After 36 weeks of treatment, 42.0 percent of patients receiving sparsentan achieved FPRE, compared to 26.0 percent of irbesartan-treated patients (p=0.0094).

[3] = Open-label drug-drug interaction study in healthy adults: plasma dapagliflozin PK; type: in vivo, human; details: for AUC(0-inf) / AUC(0-t) / Cmax: human, plasma, 10 mg; for AUC(0-inf): n = 16; for AUC(0-t) / Cmax: n = 20
Description: (§5) Potential drug-drug interactions (DDI) of sparsentan with SGLT2 inhibitors are not known. The safety of administering sparsentan and dapagliflozin was evaluated in an open-label, drug-drug interaction study in healthy […]. This phase 1 study examined the effect of multiple doses of sparsentan on the pharmacokinetics (PK) of single-dose dapagliflozin and assessed the safety and tolerability of single-dose dapagliflozin when co-administered after multiple doses of sparsentan in healthy adults.
(§6) The open-label DDI study included Period 1 (Days 1-5; single dose of 10 mg dapagliflozin (“DAPA”) on Day 1, PK sampling pre-dose and up to 96 hours post-dose) and Period 2 (Days 5-14; 800 mg sparsentan (“SPAR”) once daily for 10 days with single 10 mg dose DAPA co-administered on Day 11, DAPA PK sampling pre-dose and up to 96 hours after Day 11 dosing). To avoid hypoglycemic events, subjects received an oral 20% glucose solution in water with the DAPA dose and every ~15 minutes up to 4 hours post-dose. Plasma concentrations and PK parameters of DAPA and SPAR were summarized. Subjects with evaluable data for both periods were included in an ANOVA mixed model analysis of DAPA AUC0-t, AUC0-inf, and Cmax following DAPA+SPAR vs DAPA alone. Treatment-emergent adverse events (TEAEs) were summarized.

[4] = Open-label drug-drug interaction study in healthy adults: safety and tolerability (TEAEs); type: in vivo, human; details: 10 mg DAPA, 800 mg SPAR once daily
Description: as §5, §6

patients with IgAN [5] = test: PROTECT Phase 3 trial: safety, interim analysis; type: in vivo, human; details: 400 mg once daily
Description: as §1, §2
The study provided for an analysis of topline results at 36 weeks, following the first 280 patients reaching 36 weeks of treatment.

patients with FSGS [6] = test: DUPLEX trial: interim safety; type: in vivo, human
Description: as §3, §4

[7] = system: endothelin (A type) receptors ("ETA" receptors); details: selective dual-acting receptor antagonist; cited from earlier work
[8] = system: angiotensin II receptors (Type 1) ("AT1" receptors); details: selective dual-acting receptor antagonist; cited from earlier work
patients with FSGS [9] = details: Phase 2 clinical study; cited from earlier work

SMILES: CCCCC1=NC2(CCCC2)C(=O)N1Cc1ccc(-c2ccccc2-c2nnn[nH]2)cc1 [irbesartan]
mean reduction in proteinuria (UP/C) from baseline (patients with IgAN [1]): 15.1%
patients achieving FPRE (UP/C ≤1.5 g/g and >40 percent reduction in UP/C from Baseline) (patients with FSGS [2]): 26.0%

mean peak and extent of DAPA exposure (Cmax and AUC) ([3]; 10 mg DAPA alone vs 10 mg DAPA+800 mg SPAR): similar
AUC(0-inf) ([3]; single 10 mg DAPA alone, Day 1, read-out: AUC0-inf, geometric LSMs (DAPA alone)): 534 ng·h/mL
AUC(0-t) ([3]; single 10 mg DAPA alone, Day 1, read-out: AUC0-t, geometric LSMs (DAPA alone)): 509 ng·h/mL
Cmax ([3]; single 10 mg DAPA alone, Day 1, read-out: Cmax, geometric LSMs (DAPA alone)): 73.9 ng/mL
AUC(0-inf) ([3]; single 10 mg DAPA co-administered on Day 11 with 800 mg SPAR once daily for 10 days, read-out: AUC0-inf, geometric LSMs (DAPA + SPAR)): 565 ng·h/mL
AUC(0-t) ([3]; single 10 mg DAPA co-administered on Day 11 with 800 mg SPAR once daily for 10 days, read-out: AUC0-t, geometric LSMs (DAPA + SPAR)): 526 ng·h/mL
Cmax ([3]; single 10 mg DAPA co-administered on Day 11 with 800 mg SPAR once daily for 10 days, read-out: Cmax, geometric LSMs (DAPA + SPAR)): 79.9 ng/mL
Cmax, GLSMR (DAPA + SPAR vs DAPA alone) ([3]; plasma dapagliflozin, 90% CI 96.0-121.8, intra-subject CV% 22.0): 108.2%
AUC0-t, GLSMR (DAPA + SPAR vs DAPA alone) ([3]; plasma dapagliflozin, 90% CI 99.9-107.0, intra-subject CV% 6.3): 103.4%
AUC0-inf, GLSMR (DAPA + SPAR vs DAPA alone) ([3]; plasma dapagliflozin, 90% CI 103.1-108.9, intra-subject CV% 4.4): 105.9%
SMILES: CCOc1ccc(Cc2cc([C@@H]3O[C@H](CO)[C@@H](O)[C@H](O)[C@H]3O)ccc2Cl)cc1 [DAPA, dapagliflozin]
tolerability of single-dose DAPA co-administered with multiple doses of SPAR [4]: appeared to be well tolerated

effect of multiple dosing of SPAR on single-dose DAPA PK ([3]; healthy adults, 800 mg SPAR once daily for 10 days): did not affect single-dose DAPA PK
SMILES: CCCCC1=NC2(CCCC2)C(=O)N1Cc1ccc(-c2ccccc2S(=O)(=O)Nc2noc(C)c2C)c(COCC)c1 [sparsentan, 2-[4-[(2-butyl-4-oxo-1,3-diazaspiro[4.4]non-1-en-3-yl)methyl]-2-(ethoxymethyl)phenyl]-N-(4,5-dimethyl-1,2-oxazol-3-yl)benzenesulfonamide]
reduction in proteinuria compared to the irbesartan-treated group (patients with IgAN [1]; 36 weeks, sparsentan-treated vs irbesartan-treated group): greater than threefold reduction in proteinuria
mean reduction in proteinuria (UP/C) from baseline (patients with IgAN [1]): 49.8%
preliminary eGFR data at interim analysis (patients with IgAN [1]; interim analysis, after two years of treatment): indicative of a potential clinically meaningful treatment effect
tolerability (preliminary interim results) (patients with IgAN [5]): generally well-tolerated
proportion achieving composite endpoint, sparsentan arm vs irbesartan arm (patients with FSGS [2]; Week 36, vs irbesartan): significantly higher
patients achieving FPRE (UP/C ≤1.5 g/g and >40 percent reduction in UP/C from Baseline) (patients with FSGS [2]): 42.0%
tolerability (preliminary review of interim safety results) (patients with FSGS [6]; FSGS): generally well-tolerated
overall safety profiles between treatment groups (patients with FSGS [6]; sparsentan vs active control treatment group): generally comparable between treatment groups
affinity for endothelin (A type) receptors [7]: selective dual-acting receptor antagonist with affinity for endothelin (A type) receptors
affinity for angiotensin II receptors (Type 1) [8]: selective dual-acting receptor antagonist
reduction of proteinuria in patients with FSGS (patients with FSGS [9]): shown to reduce proteinuria
